From patent US20060173080A1, “Methods of modulating TNF using bupropion” (The Regents of the University of California, priority 2002, published 2006)
Entries after “also recorded” stand apart in the source; their conditions may differ. Counter-ions that a name gives are not always drawn.

Key:
major depression = assay: Course of major depression in the case patients on bupropion; assay type: in vivo, human; details: case patients on bupropion 150 mg BID or TID; hydrochloride
Procedure: After careful review of treatment options, they were started on bupropion (fluoxetine was stopped) with up-titration to 150 mg twice a day. Their abdominal complaints eased over the next months, and the major depression remitted. The baseline dysthymia remained. To better treat the dysthymia, bupropion was raised to 150 mg three times daily with a further lowering of their CDAI. The mesalamine was tapered off. Their CDAI is currently approximately zero. They have one well-formed bowel movement daily and has been without abdominal symptoms or encopresis for 19 months now. They have had no CD flares since starting bupropion. Twice in the last year, they stopped bupropion on their own accord because they felt completely well and felt they didn't need bupropion anymore. […] A person with NYSHA Class I CHF who started on bupropion for major depression. Their TNF before bupropion was 347 pg/ml and 5 pg/ml after two months on bupropion 150 mg twice a day (BID). […] In addition, a person with a history of two myocardial infarctions and NYSHA Class II CHF, who started on bupropion for major depression and desire to stop a 1.5 container/day chewing tobacco habit. Their TNF before starting bupropion was 433 pg/ml, and […] and then four weeks on bupropion 150 mg three times a day (TID). They subsequently stopped using tobacco and their depression is in remission.

nitric oxide = assay: Serum nitrite (Griess reaction) as indicator of nitric oxide production in LPS-challenged mice; assay type: in vivo, BALB/c mice; details: bupropion i.p. 1 h before 600 μg LPS
Procedure: To study the immunomodulatory effects of bupropion we used a mouse model in which TNF production is induced by stimulation with lipopolysaccharide (LPS) (Bozza et al, The PACAP-type I receptor agonist maxadilan from sand fly saliva protects mice against lethal endotoxemia by a mechanism partially dependent on IL-10, Eur. J. Immunol. 28, 3120-3127, 1998). BALB/c mice were injected intraperitoneally (i.p.) with bupropion or placebo 1 h prior to i.p. injection of LPS (600 ug/mouse).
Male, 6 weeks old BALB/c mice were used in LPS-induced shock experiments. […]
TNF, IL-1beta, IFN-gamma and IL-10 concentrations in serum samples or in supernatants from macrophage cultures were determined by enzyme-linked immunosorbent assay (ELISA) using antibody pairs and recombinant cytokines from R&D systems (Minneapolis, Minn., USA), according to the manufacturer's instructions. After incubation with streptoavidin-peroxidase conjugate (Sigma), the reaction was developed using 3,3′, 5,5′-tetramethylbenzidine (TMB) peroxidase substrate and read at 450 nm. The serum concentration of nitrite (NO2−) was determined by the Griess reaction, as an indicator of nitric oxide production (Green et al., Analysis of nitrate nitrite and [^15N] nitrite in biological fluids. Anal. Biochem 126, 131-138, 1982). […] The absorbance of the reaction product at 540 nm was measured using an ELISA reader. […]

BALB/c mice = assay: LPS-induced shock model: survival and signs of endotoxemia after lethal LPS challenge; assay type: in vivo; details: for survival after lethal LPS challenge: mouse, in vivo, hydrochloride
Procedure: Male BALB/c mice were injected with 11, 33 or 100 mg/kg of bupropion or with placebo i.p. in saline 1 h before challenge with 600 μg of E. coli LPS (Sigma, St. Louis, Mo.) by i.p. route. Mice were sacrificed 90 min for detection of cytokines in the serum by sandwich ELISA. Values represent the means±SEM of 5 mice per group. * P<0.05.
BALB/c mice were injected intraperitoneally (i.p.) with bupropion or placebo 1 h prior to i.p. injection of LPS (600 ug/mouse).
Male, 6 weeks old BALB/c mice were used in LPS-induced shock experiments. All mice were raised and maintained at the animal facilities at the Goncalo Moniz Research Center-FIOCRUZ, and provided with rodent diet and water ad libitum. Animal numbers in experimental groups were the minimum necessary to permit statistical analysis. All animals were sacrificed under anaesthesia.
In some experiments, groups of mice received i.p. injection of propranolol (1 mg/Kg), SCH23390 (25 μg/kg) and sulpiride (25 mg/Kg) 1 h prior to injection of bupropion. […] To determine serum TNF, IL-1 beta and IL-10 levels, mice were sacrificed 90 min after injection of LPS and bled by axilar vein puncture. Levels of IFN-gamma and nitric oxide were assayed using sera of mice sacrificed 4 h after LPS injection. Platelet and leukocyte cell counts were performed using blood collected with EDTA after 4 h of LPS challenge, using an automated cell counter (ADVIA 60, Bayer).

[1] = test system: platelet and leukocyte numbers in peripheral blood; assay: Platelet and leukocyte counts in peripheral blood 4 h after LPS challenge; assay type: in vivo, BALB/c mice; details: bupropion 100 mg/kg i.p. 1 h before LPS, hydrochloride
Procedure: FIG. 6 is a bar graph depicting normalization of platelet and leukocyte levels by bupripion treatment. Groups of BALB/c mice were injected with bupropion 100 mg/kg (Wellbutrin, Glaxo) or with placebo i.p. in saline 1 h before challenge with 600 μg of LPS (DL-100) by i.p. route. Platelet and leukocyte numbers were evaluated in peripheral blood samples collected 4 h after LPS challenge in an automated cell counter (Bayer). * P<0.05 placebo compared with normal levels; # P<0.05 bupropion compared with placebo. In a shock often platelet levels drop precipitously due to intravascular coagulation and leukocyte also fall secondary to TNF induced apoptosis. The normalization by bupropion is consistent with the other effects of bupropion in this model.
Groups of mice were injected intraperitoneally (i.p.) with a dose of 600 μg of LPS (from Escherichia coli serotype 0111 :B4, Sigma, St. Louis, Mo., USA) in saline (previously determined as LD 100) 1 h after injection of placebo or bupropion. In some experiments, groups of mice received i.p. injection of propranolol (1 mg/Kg), SCH23390 (25 μg/kg) and sulpiride (25 mg/Kg) 1 h prior to injection of bupropion. […]. To determine serum TNF, IL-1 beta and IL-10 levels, mice were sacrificed 90 min after injection of LPS and bled by axilar vein puncture. […]

β-adrenergic receptor = details: Garrcha et al. 1985; cited from earlier work
TNF = details: Altschuler and Kast 2003; cited from earlier work

**Q.** Which depression outcome (major depression) does the source give for `CC(NC(C)(C)C)C(=O)c1cccc(Cl)c1` (racemic) [bupropion, (.±.)-1-(3-chlorophenyl)-2-[(1,1-dimethylethyl)amino]-1-propanone hydrochloride] here?
**A.** partially controlled; also recorded: in remission; also recorded: remitted

**Q.** What about the “nitric oxide level compared with placebo” value (nitric oxide) of the same compound?
**A.** decreased with a trend toward significance

**Q.** And the “production of nitric oxide, reduction compared to placebo treated mice” value (nitric oxide; serum 4 h after LPS)?
**A.** about four-fold

**Q.** And the “signs of endotoxemia (diarrhea, immobility, lethargy, piloerection, shivering)” value (BALB/c mice; bupropion 100 mg/kg, compared with placebo)?
**A.** milder or absent

**Q.** And the “survival after lethal LPS challenge” value (BALB/c mice)?
**A.** protects mice

**Q.** And the “survival after lethal LPS challenge” value (BALB/c mice; listed as bupropion hydrochloride)?
**A.** increased survival rates

**Q.** And the “survival after lethal LPS challenge” value (BALB/c mice; listed as buproprion)?
**A.** significantly increased the survival time

**Q.** What about the leukocyte levels [1] of the same compound?
**A.** higher leukocyte levels; also recorded: normalization

**Q.** And the platelet counts [1]?
**A.** significantly higher than placebo treated mice and similar to those of normal mice; also recorded: normalization

**Q.** And the “compensatory β-adrenergic receptor down-regulation” value (β-adrenergic receptor)?
**A.** does not cause

**Q.** And the “circulating TNF levels” value (TNF)?
**A.** lowers
